Data from the supplement of paper PMC10307832.

Tests used:
Assay in all cases: relative viability (nuclei count vs DMSO), 5 days (fraction); higher = more cells survive
[1] = compound: C[C@@H](C(=O)N[C@@H](C1CCCCC1)C(=O)N2CCC[C@H]2C(=O)N[C@@H]3[C@@H](CC4=CC=CC=C34)OCC#CC#CCO[C@@H]5CC6=CC=CC=C6[C@@H]5NC(=O)[C@@H]7CCCN7C(=O)[C@H](C8CCCCC8)NC(=O)[C@H](C)NC)NC [AZD5582] + CC1(C)CCC(c2ccc(Cl)cc2)=C(CN2CCN(c3ccc(C(=O)NS(=O)(=O)c4ccc(N[C@H](CCN5CCOCC5)CSc5ccccc5)c(S(=O)(=O)C(F)(F)F)c4)cc3)CC2)C1 [Navitoclax] (partner 0.5 µM)
In short: (§1)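 Lung cancer cell lines in 1536-well plates got either a single drug or a fixed anchor-drug dose together with five library-drug doses (not always all listed) in √10 steps, by pin tool, on the day after seeding. Nuclei were counted after 5 days, and relative viability is the treated-to-vehicle ratio of nuclei counts. Values are medians of duplicate plates.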

[2] = compound: Cn1nnc2c(C(N)=O)ncn2c1=O [Temozolomide] + CS(=O)(=O)CCNCc1ccc(-c2ccc3ncnc(Nc4ccc(OCc5cccc(F)c5)c(Cl)c4)c3c2)o1 [Lapatinib] (partner 2 µM)
In short: as §1

[3] = compound: Cn1nnc2c(C(N)=O)ncn2c1=O [Temozolomide] + O=C(c1cc(Cc2n[nH]c(=O)c3ccccc23)ccc1F)N1CCN(C(=O)C2CC2)CC1 [Olaparib] (partner 8 µM)
In short: as §1

[4] = compound: C[C@@H](C(=O)N[C@@H](C1CCCCC1)C(=O)N2CCC[C@H]2C(=O)N[C@@H]3[C@@H](CC4=CC=CC=C34)OCC#CC#CCO[C@@H]5CC6=CC=CC=C6[C@@H]5NC(=O)[C@@H]7CCCN7C(=O)[C@H](C8CCCCC8)NC(=O)[C@H](C)NC)NC [AZD5582] + O=C(c1cc(Cc2n[nH]c(=O)c3ccccc23)ccc1F)N1CCN(C(=O)C2CC2)CC1 [Olaparib] (partner 8 µM)
In short: as §1

NCI-H1703
relative viability ([1]; first compound 0.001581 µM): 0.874
relative viability ([1]; first compound 0.005 µM): 0.807
relative viability ([1]; first compound 0.01581 µM): 1.03
relative viability ([1]; first compound 0.05 µM): 0.557
relative viability ([2]; first compound 0.2 µM): 1.39
relative viability ([2]; first compound 0.6325 µM): 1.08
relative viability ([2]; first compound 2 µM): 1.59
relative viability ([2]; first compound 6.325 µM): 0.972
relative viability ([2]; first compound 20 µM): 1.21
relative viability ([3]; first compound 0.2 µM): 0.497
relative viability ([3]; first compound 0.6325 µM): 0.43
relative viability ([3]; first compound 2 µM): 0.469
relative viability ([3]; first compound 6.325 µM): 0.405
relative viability ([3]; first compound 20 µM): 0.448
relative viability ([4]; first compound 0.005 µM): 0.413
relative viability ([4]; first compound 0.01581 µM): 0.487
relative viability ([4]; first compound 0.05 µM): 0.54
